Measurements taken from US11230549B2, “Quinolino-pyrrolidin-2-one derivative and application thereof” (MEDSHINE DISCOVERY INC., priority 2018, dated 2022).

Experiments:
[1] = system: human lung cancer H446 cell subcutaneous xenograft tumor; test: In vivo efficacy of ATM inhibitors and etoposide in H446 subcutaneous xenograft model; set-up: species or system female BALB/c nude mouse; details: etoposide 15 mg/kg IP, ATM inhibitor 5 mg/kg PO; for Tumor volume (mm^3) / Tumor volume (mm^3) (Day 26): Mean ± SEM; for T/C (%) tumor proliferation rate / TGI (%) tumor growth inhibition rate: Day 26; for Tumor volume (mm^3) (Day 26): Day 26 after administration
Protocol: Evaluation of the in vivo efficacy of the test drug ATM inhibitor and etoposide in a BALB/c nude mouse model with human lung cancer H446 cell subcutaneous xenograft tumor via intraperitoneal or oral administration.
5% CO2 culture. Conventional digestion treatment with pancreatin-EDTA for passage was carried out twice a week. When the cell saturation was 80% to 90%, the cells were collected, counted and inoculated.
0.2 mL 5×10^6 of H446 cells (1:1 plus matrigel) were subcutaneously inoculated on the right back of each nude mouse. The grouping and administration were started when the average tumor volume reached 125 mm^3 (Table).
The experimental index was to investigate whether the tumor growth was inhibited, delayed or cured. Tumor diameter was measured twice a week with a vernier caliper. The calculation formula of tumor volume: V=0.5a×b^2, wherein a and b represented the long and short diameters of the tumor, respectively.
Tumor proliferation rate T/C (%): wherein T is the average tumor volume obtained from the last measurement (PG-D26) of the treatment group, and C is the average tumor volume obtained from the last measurement (PG-D26) of the control group.
Mean value and standard error (SEM) of the tumor volume of each group at each time point were included (specific data is shown in tables). […] The comparison between two groups was analyzed by T-test, and the comparison between three or more groups was analyzed by one-way ANOVA. If there was heterogeneity of variance, the Games-Howell test was applied. If there was homogeneity of variance, the Dunnet (2-sided) test was used for analysis.

[2] = target: T1, Human-derived ATM kinase (Homo sapiens, UniProt Q13315); test: ATM enzyme activity test (HTRF, phosphorylation of GST-cMyc-p53); format: biochemical
T1 construct: Eurofins (contract laboratory that ran the test)
T1 sequence (Q13315 whole entry): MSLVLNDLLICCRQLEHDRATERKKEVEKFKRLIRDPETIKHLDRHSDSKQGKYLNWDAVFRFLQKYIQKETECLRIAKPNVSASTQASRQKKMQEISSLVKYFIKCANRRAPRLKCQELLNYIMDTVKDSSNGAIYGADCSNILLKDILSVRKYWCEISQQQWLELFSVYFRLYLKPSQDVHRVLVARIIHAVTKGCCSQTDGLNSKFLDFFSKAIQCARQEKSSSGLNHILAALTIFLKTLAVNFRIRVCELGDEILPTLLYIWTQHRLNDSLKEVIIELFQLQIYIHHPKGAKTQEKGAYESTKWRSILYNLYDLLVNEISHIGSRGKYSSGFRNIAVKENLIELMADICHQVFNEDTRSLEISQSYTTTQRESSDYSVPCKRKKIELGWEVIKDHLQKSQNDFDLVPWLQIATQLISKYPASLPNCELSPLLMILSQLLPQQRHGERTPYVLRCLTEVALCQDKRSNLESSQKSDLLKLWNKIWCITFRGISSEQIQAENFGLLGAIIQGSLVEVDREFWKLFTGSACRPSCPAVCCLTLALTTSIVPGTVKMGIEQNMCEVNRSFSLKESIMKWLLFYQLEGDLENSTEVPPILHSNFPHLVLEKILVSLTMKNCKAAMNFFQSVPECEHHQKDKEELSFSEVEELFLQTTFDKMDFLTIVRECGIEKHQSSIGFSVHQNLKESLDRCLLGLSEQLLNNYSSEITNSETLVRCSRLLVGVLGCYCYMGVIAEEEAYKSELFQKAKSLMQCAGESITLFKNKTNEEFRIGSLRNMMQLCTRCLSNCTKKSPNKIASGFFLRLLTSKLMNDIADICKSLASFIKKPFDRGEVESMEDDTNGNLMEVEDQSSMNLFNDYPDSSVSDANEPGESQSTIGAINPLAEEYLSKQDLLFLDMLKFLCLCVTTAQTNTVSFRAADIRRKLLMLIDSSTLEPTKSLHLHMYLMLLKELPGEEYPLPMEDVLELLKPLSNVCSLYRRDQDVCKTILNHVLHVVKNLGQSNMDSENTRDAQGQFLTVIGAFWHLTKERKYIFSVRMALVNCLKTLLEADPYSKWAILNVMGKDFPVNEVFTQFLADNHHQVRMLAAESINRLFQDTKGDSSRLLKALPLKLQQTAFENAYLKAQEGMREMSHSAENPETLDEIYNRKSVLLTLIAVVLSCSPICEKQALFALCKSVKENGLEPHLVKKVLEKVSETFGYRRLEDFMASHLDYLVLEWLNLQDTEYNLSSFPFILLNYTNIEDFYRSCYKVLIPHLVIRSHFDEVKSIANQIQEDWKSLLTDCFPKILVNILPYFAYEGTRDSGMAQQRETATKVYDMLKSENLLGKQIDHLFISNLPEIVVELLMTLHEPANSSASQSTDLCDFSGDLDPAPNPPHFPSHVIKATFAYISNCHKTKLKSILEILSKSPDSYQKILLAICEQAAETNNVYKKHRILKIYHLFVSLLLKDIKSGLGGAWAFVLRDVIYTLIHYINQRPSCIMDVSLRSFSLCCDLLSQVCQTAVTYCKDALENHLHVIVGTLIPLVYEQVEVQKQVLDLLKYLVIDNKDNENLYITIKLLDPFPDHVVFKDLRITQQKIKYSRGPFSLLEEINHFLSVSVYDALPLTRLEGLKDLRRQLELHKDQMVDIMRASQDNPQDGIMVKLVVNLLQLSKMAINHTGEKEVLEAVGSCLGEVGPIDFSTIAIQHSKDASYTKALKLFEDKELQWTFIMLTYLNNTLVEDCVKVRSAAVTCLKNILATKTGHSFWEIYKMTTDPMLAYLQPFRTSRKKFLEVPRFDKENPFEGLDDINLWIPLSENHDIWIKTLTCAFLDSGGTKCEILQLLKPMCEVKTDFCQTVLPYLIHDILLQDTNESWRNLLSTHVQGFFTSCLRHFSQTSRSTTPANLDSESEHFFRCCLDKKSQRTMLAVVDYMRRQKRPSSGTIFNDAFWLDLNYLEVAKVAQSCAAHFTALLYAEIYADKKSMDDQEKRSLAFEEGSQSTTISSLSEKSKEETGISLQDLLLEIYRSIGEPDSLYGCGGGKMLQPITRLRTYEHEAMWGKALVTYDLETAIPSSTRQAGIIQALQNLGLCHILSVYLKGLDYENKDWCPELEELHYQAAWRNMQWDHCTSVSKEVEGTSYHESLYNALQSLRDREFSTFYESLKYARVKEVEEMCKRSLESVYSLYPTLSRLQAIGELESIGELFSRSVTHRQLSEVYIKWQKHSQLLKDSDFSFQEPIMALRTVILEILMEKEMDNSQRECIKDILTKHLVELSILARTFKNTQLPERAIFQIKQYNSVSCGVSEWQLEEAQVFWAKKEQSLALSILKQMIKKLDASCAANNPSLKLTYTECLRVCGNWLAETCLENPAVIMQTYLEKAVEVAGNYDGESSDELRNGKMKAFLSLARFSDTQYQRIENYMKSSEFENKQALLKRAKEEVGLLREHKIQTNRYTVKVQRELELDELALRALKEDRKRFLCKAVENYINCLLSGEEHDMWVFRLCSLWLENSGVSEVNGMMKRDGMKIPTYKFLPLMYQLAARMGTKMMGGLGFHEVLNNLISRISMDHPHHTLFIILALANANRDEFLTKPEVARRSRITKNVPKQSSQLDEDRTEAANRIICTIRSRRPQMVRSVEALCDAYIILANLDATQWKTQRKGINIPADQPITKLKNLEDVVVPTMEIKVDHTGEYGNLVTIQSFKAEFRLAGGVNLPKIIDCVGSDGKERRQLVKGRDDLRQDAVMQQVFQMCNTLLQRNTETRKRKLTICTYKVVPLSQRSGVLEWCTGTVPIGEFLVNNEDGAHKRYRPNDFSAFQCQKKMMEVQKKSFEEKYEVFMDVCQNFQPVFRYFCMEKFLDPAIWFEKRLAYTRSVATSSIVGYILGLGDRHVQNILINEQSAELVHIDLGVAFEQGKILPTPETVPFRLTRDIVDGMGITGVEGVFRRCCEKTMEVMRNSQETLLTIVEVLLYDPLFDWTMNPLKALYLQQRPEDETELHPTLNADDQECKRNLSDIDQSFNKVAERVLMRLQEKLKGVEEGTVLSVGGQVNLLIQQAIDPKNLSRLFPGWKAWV
Protocol: (§1) The compounds of the present disclosure used for experiments are all prepared in-house, and their chemical names and structural formulas are shown in the preparation examples of each compound. The experimental tests were carried out by a UK company Eurofins, and the experimental results were provided by the company. The following experimental processes were also provided by the company.
(§2) Human-derived ATM kinase was incubated in a buffer solution containing 30 nM of GST-cMyc-p53 and Mg/ATP. The concentration of Mg/ATP was determined according to different needs. The reaction was initiated by adding a Mg/ATP complex. After incubating for about 30 minutes at room temperature, a stop solution containing EDTA was added to stop the reaction. Finally, for phosphorylated p53, a detection buffer containing a d2-labeled anti-GST monoclonal antibody and an europium-labeled phosphorylated Ser15 antibody was added. Then time-resolved fluorescence mode was used to read a detection disk, and a homogeneous time-resolved fluorescence (HTRF) signal was obtained by calculating formula HTRF=10000×(Em665 nm/Em620 nm).

[3] = target: T2, Human-derived DNA-PK kinase (Homo sapiens, UniProt P78527); test: DNA-PK enzyme activity test (HTRF, phosphorylation of GST-cMyc-p53); format: biochemical
T2 construct: Eurofins (contract laboratory that ran the test)
Protocol: as §1
as §2, with “Human-derived DNA-PK” for “Human-derived ATM”, “containing 50” for “containing 30”

Row | SMILES | IC50 [2] | IC50 [3] | also measured
1 | COc1cc([C@@H]2c3cc4c(cc3[C@@H](O[C@@H]3O[C@@H]5CO[C@@H](C)O[C@H]5[C@H](O)[C@H]3O)[C@H]3COC(=O)[C@H]23)OCO4)cc(OC)c1O [Etoposide, etoposide, reference compound] | – | – | Tumor volume (mm^3) ([1]; Day 0 after administration): 125 ± 8 mm^3; Tumor volume (mm^3) ([1]; Day 3 after administration): 132 ± 11 mm^3; Tumor volume (mm^3) ([1]; Day 7 after administration): 259 ± 37 mm^3; Tumor volume (mm^3) ([1]; Day 10 after administration): 364 ± 47 mm^3; Tumor volume (mm^3) ([1]; Day 14 after administration): 552 ± 66 mm^3; Tumor volume (mm^3) ([1]; Day 17 after administration): 851 ± 84 mm^3; Tumor volume (mm^3) ([1]; Day 21 after administration): 1021 ± 112 mm^3; T/C (%) tumor proliferation rate [1]: 59.93%; TGI (%) tumor growth inhibition rate [1]: 41.95%; Tumor volume (mm^3) (Day 26) [1]: 1667 ± 193 mm^3
2 | CN(C)CCCOc1ccc(-c2ccc3ncc4c(c3c2)C2(CCOCC2)C(=O)N4C)cn1 [Example 1] | 0.9 nM | 78 nM | –
3 | CN1C(=O)C2(CCOCC2)c2c1cnc1ccc(-c3cnn(C)c3)cc21 [Example 2] | 288 nM | 73 nM | –
4 | CN1C(=O)C2(CCOCC2)c2c1cnc1ccc(-c3ccc(OCCCN4CC[C@H](F)C4)nc3)cc21 [Example 3] | 1 nM | 48 nM | –
5 | CN1C(=O)C2(CCOCC2)c2c1cnc1ccc(-c3ccc(OCCCN4CC[C@@H](F)C4)nc3)cc21 [Example 4] | 1 nM | 62 nM | –
6 | CN1C(=O)C2(CCOCC2)c2c1cnc1ccc(-c3ccc(OCCCN4CCC(F)CC4)nc3)cc21 [Example 5] | 2 nM | 92 nM | –
7 | CN1C(=O)C2(CCOCC2)c2c1cnc1ccc(-c3ccc(OCCCN(C4CC4)C4CC4)nc3)cc21 [Example 6] | 2 nM | 800 nM | –
8 | CN(C)CCCOc1ccc(-c2ccc3ncc4c(c3c2)C2(CCC(F)(F)CC2)C(=O)N4C)cn1 [Example 7] | 1 nM | 153 nM | –
9 | CN(C)CCCOc1ccc(-c2ccc3ncc4c(c3c2)C2(CCNCC2)C(=O)N4C)cn1 [Example 8] | 3 nM | 99 nM | –
10 | CN(C)CCCOc1ccc(-c2ccc3ncc4c(c3c2)C2(CCN(C)CC2)C(=O)N4C)cn1 [Example 9] | 1 nM | 83 nM | –
11 | CCN1CCC2(CC1)C(=O)N(C)c1cnc3ccc(-c4ccc(OCCCN(C)C)nc4)cc3c12 [Example 10] | 2 nM | 80 nM | –
12 | CCN1CCC2(CC1)C(=O)N(C)c1cnc3ccc(-c4ccc(OCCCN5CCCCC5)nc4)cc3c12 [Example 11] | 2 nM | 243 nM | –
13 | CN(C)CCCOc1ccc(-c2ccc3ncc4c(c3c2)C2(CCN(CC(F)F)CC2)C(=O)N4C)cn1 [Example 12] | 2 nM | 26 nM | –
14 | CN(C)CCCOc1ccc(-c2ccc3ncc4c(c3c2)C2(CCN(CC(F)(F)F)CC2)C(=O)N4C)cn1 [Example 13] | 4 nM | 27 nM | –
15 | CN1C(=O)C2(CCN(CC(F)(F)F)CC2)c2c1cnc1ccc(-c3ccc(OCCCN4CCCCC4)nc3)cc21 [Example 14] | 3 nM | 46 nM | –
16 | CC(C)N1CCC2(CC1)C(=O)N(C)c1cnc3ccc(-c4ccc(OCCCN(C)C)nc4)cc3c12 [Example 15] | 2 nM | 41 nM | –
17 | CC(C)N1CCC2(CC1)C(=O)N(C)c1cnc3ccc(-c4ccc(OCCCN5CCCCC5)nc4)cc3c12 [Example 16] | 4 nM | 204 nM | –
18 | CC(=O)N1CCC2(CC1)C(=O)N(C)c1cnc3ccc(-c4ccc(OCCCN(C)C)nc4)cc3c12 [Example 17] | 3 nM | 352 nM | –
19 | CN(C)CCCOc1ccc(-c2ccc3ncc4c(c3c2)C2(CCN(C(=O)C3CC3)CC2)C(=O)N4C)cn1 [Example 18] | 2 nM | 343 nM | –

Row | SMILES | IC50 [2] | IC50 [3] | also measured
20 | COC(=O)N1CCC2(CC1)C(=O)N(C)c1cnc3ccc(-c4ccc(OCCCN(C)C)nc4)cc3c12 [Example 19] | 0.8 nM | 77 nM | –
21 | COC(=O)N1CCC2(CC1)C(=O)N(C)c1cnc3ccc(-c4ccc(OCCCN5CCCCC5)nc4)cc3c12 [Example 20] | 2 nM | 129 nM | –
22 | CC(C)OC(=O)N1CCC2(CC1)C(=O)N(C)c1cnc3ccc(-c4ccc(OCCCN(C)C)nc4)cc3c12 [Example 21] | 7 nM | 509 nM | –
23 | CN(C)CCCOc1ccc(-c2ccc3ncc4c(c3c2)C2(CCN(C3CC3)CC2)C(=O)N4C)cn1 [Example 22] | 1 nM | 14 nM | –
24 | CN1C(=O)C2(CCN(C3CC3)CC2)c2c1cnc1ccc(-c3ccc(OCCCN4CCCCC4)nc3)cc21 [Example 23] | 0.8 nM | 30 nM | –
25 | CN1C(=O)C2(CCOCC2)c2c1cnc1ccc(-c3ccc(OCCCN4CCCCC4)nc3)cc21 [Example 24] | 2 nM | 80 nM | –
26 | COC1CCC2(CC1)C(=O)N(C)c1cnc3ccc(-c4ccc(OCCCN(C)C)nc4)cc3c12 (centres unmarked) [Example 25] | 1 nM | 92 nM | –
27 | CN(C)CCCOc1ccc(-c2ccc3ncc4c(c3c2)C2(CCC(O)CC2)C(=O)N4C)cn1 (centres unmarked) [Example 26] | 1 nM | 76 nM | –
28 | CN(C)CCCOc1ccc(-c2ccc3ncc4c(c3c2)C2(CCC(C)(O)CC2)C(=O)N4C)cn1 (centres unmarked) [Example 27] | 1 nM | 99 nM | –
29 | CN1C(=O)C2(CCC(C)(O)CC2)c2c1cnc1ccc(-c3ccc(OCCCN4CCCCC4)nc3)cc21 (centres unmarked) [Example 28] | 2 nM | 334 nM | –
30 | CN(C)CCCOc1ccc(-c2ccc3ncc4c(c3c2)C2(CCOCC2)C(=O)N4C2CC2)cn1 [Example 29] | 2 nM | 269 nM | –
31 | O=C1N(C2CC2)c2cnc3ccc(-c4ccc(OCCCN5CCCCC5)nc4)cc3c2C12CCOCC2 [Example 30] | 2 nM | 475 nM | –
32 | COCc1ccc(-c2ccc3ncc4c(c3c2)C2(CCOCC2)C(=O)N4C)cn1 [Example 31] | 63 nM | 88 nM | –
33 | CN1C(=O)C2(CCOCC2)c2c1cnc1cc(F)c(-c3ccc(OCCCN4CCCCC4)nc3)cc21 [Example 32] | 2 nM | 561 nM | Tumor volume (mm^3) ([1]; Day 0 after administration): 125 ± 7 mm^3; Tumor volume (mm^3) ([1]; Day 3 after administration): 138 ± 6 mm^3; Tumor volume (mm^3) ([1]; Day 7 after administration): 229 ± 10 mm^3; Tumor volume (mm^3) ([1]; Day 10 after administration): 359 ± 36 mm^3; Tumor volume (mm^3) ([1]; Day 14 after administration): 644 ± 83 mm^3; Tumor volume (mm^3) ([1]; Day 17 after administration): 974 ± 129 mm^3; Tumor volume (mm^3) ([1]; Day 21 after administration): 1240 ± 157 mm^3; T/C (%) tumor proliferation rate [1]: 73.86%; TGI (%) tumor growth inhibition rate [1]: 27.36%; Tumor volume (mm^3) (Day 26) [1]: 2054 ± 221 mm^3
34 | CN(C)CCCOc1ccc(-c2cc3c4c(cnc3cc2F)N(C)C(=O)C42CCOCC2)cn1 [Example 33] | 1 nM | 593 nM | –
35 | CN(C)CCCOc1ccc(-c2cc3c4c(cnc3cc2F)N(C2CC2)C(=O)C42CCOCC2)cn1 [Example 34] | 5 nM | > 1000 nM | –
36 | O=C1N(C2CC2)c2cnc3cc(F)c(-c4ccc(OCCCN5CCCCC5)nc4)cc3c2C12CCOCC2 [Example 35] | 3 nM | > 1000 nM | –
37 | CN(C)CCCOc1ccc(-c2cc3c4c(cnc3cc2Cl)N(C)C(=O)C42CCOCC2)cn1 [Example 36] | 12 nM | > 1000 nM | –
